The text below walks through data of ChEMBL document CHEMBL6115010, “Targeting glioma with heteroaromatic alkaloids: A review of potential therapeutics” (Bioorg Med Chem, 2025).

≈ marks a conversion by molar mass, not a printed value.

In experiment [1] the test system is SF-295. The experiment can be described thus: Cytotoxicity against human SF-295 cells. It is filed as functional, cell-based.
For experiment [2], the system named is SF-295. The experiment can be described thus: Cytotoxicity against human SF-295 cells assessed as reduction in cell growth incubated for 96 hrs by MTT assay. Particulars: SF-295, 96 h. It is filed as functional, cell-based.
The nature of experiment [3]: Inhibition of rat C6 cells at 1 micromol/L measured for 24 hrs relative to control. Particulars: C6, 24 h, dose 1 µmol/L. It is filed as functional.
The nature of experiment [4]: Inhibition of rat C6 cells at 2 micromol/L measured for 24 hrs relative to control. Type of experiment: functional. As to conditions: C6, 24 h, dose 2 µmol/L.
For experiment [5], the system named is U-87 MG. The experiment in a line: Cytotoxicity against human U-87 MG cells assessed as reduction in cell growth incubated for 48 hrs by MTT assay. It is filed as functional, cell-based, U-87MG ATCC.
Experiment [6] concerns T98G. The experiment in a line: Cytotoxicity activity against human T98G cells assessed as reduction in cell growth measured for 48 hrs by MTS reagent based assay. It is filed as functional.
Experiment [7] has as its system U-251. The experiment can be described thus: Antiproliferative activity against human U-251MG cells assessed as reduction in cell viability incubated for 72 hrs by SRB assay. Type of experiment: functional, cell-based. As to conditions: U-251, 72 h.
The test system of experiment [8] is SF-268. The experiment in a line: Cytotoxicity against human SF-268 cells assessed as reduction in cell viability incubated for 72 hrs by MTT assay. Particulars: SF-268, 72 h. Type of experiment: functional, cell-based.
Experiment [9] deals with C6. The experiment in a line: Antiproliferative activity against rat C6 cells assessed as reduction in cell growth at 10 uM incubated for 24 hrs by MTT assay relative to control. Further details: scale not given: the % may be the effect or the level left. Type of experiment: functional.
For experiment [10], the system named is LN-18. The experiment in a line: Antiproliferative activity against human LN-18 cells assessed as inhibition of cell growth incubated for 72 hrs MTS assay. It is filed as functional, cell-based. Particulars: LN-18, 72 h.
The subject of experiment [11] is T98G. The experiment can be described thus: Antiproliferative activity against human T98G cells assessed as reduction in cell viability measured for 24 hrs by MTT assay. Type of experiment: functional, cell-based.
Experiment [12] has as its system T98G. The experiment in a line: Antiproliferative activity against human T98G cells assessed as reduction in cell viability by MTT assay. Type of experiment: functional, cell-based.
The subject of experiment [13] is U-118-MG. The experiment in a line: Antiproliferative activity against human U-118-MG cells assessed as reduction in cell viability incubated for 72 hrs by MTT assay. Type of experiment: functional, cell-based.
The nature of experiment [14]: Antiproliferative activity against human SHG-44 cells assessed as reduction in cell viability by MTT assay. Type of experiment: functional, cell-based.
The subject of experiment [15] is U-87 MG. The experiment in a line: Antiproliferative activity against human U-87 MG cells assessed as reduction in cell viability incubated for 72 hrs by MTT assay. Type of experiment: functional, cell-based, U-87MG ATCC.
Experiment [16] deals with LN-229. The experiment can be described thus: Antiproliferative activity against human LN-229 cells assessed as reduction in cell viability by MTT assay. Type of experiment: functional, cell-based.
In experiment [17] the test system is C6. The experiment can be described thus: Antiproliferative activity against rat C6 cells assessed as reduction in cell viability by MTT assay. Type of experiment: functional, cell-based.
The test system of experiment [18] is U-251. The experiment can be described thus: Antiproliferative activity against human U-251MG cells assessed as reduction in cell viability incubated for 72 hrs by MTT assay. Type of experiment: functional, cell-based. Particulars: U-251, 72 h.
For experiment [19], the system named is U-87 MG. The experiment in a line: Cytotoxicity against human U-87 MG cells assessed as reduction in cell viability incubated for 72 hrs by neutral red uptake assay. It is filed as functional, cell-based, U-87MG ATCC.
Experiment [20] deals with U-87 MG. The experiment can be described thus: Cytotoxicity against human U-87 MG cells assessed as reduction in cell viability in presence of Jerantinine B incubated for 72 hrs by neutral red uptake assay. Type of experiment: functional, cell-based, U-87MG ATCC.
The test system of experiment [21] is U-251. The experiment in a line: Antiproliferative activity against human U-251MG cells assessed as reduction in cell growth incubated for 72 hrs by MTT assay. It is filed as functional, cell-based. As to conditions: U-251, 72 h.
Experiment [22] relates to C6. The experiment can be described thus: Antiproliferative activity against rat C6 cells assessed as reduction in cell growth incubated for 48 hrs by MTT assay. As to conditions: C6, 48 h. It is filed as functional, cell-based.
Experiment [23] has as its system C6. The experiment in a line: Antiproliferative activity against rat C6 cells assessed as reduction in cell growth incubated for 24 hrs by MTT assay. Type of experiment: functional.
For experiment [24], the system named is U-251. The experiment can be described thus: Antiproliferative activity against human U-251MG cells assessed as reduction in cell growth incubated for 48 hrs by MTT assay. It is filed as functional, cell-based. Particulars: U-251, 48 h.
Experiment [25] concerns U-251. The experiment in a line: Antiproliferative activity against human U-251MG cells assessed as reduction in cell growth incubated for 24 hrs by MTT assay. It is filed as functional, cell-based. Particulars: U-251, 24 h.
For experiment [26], the system named is C6. The experiment in a line: Antiproliferative activity against rat C6 cells assessed as reduction in cell growth incubated for 72 hrs by MTT assay. Particulars: C6, 72 h. It is filed as functional, cell-based.

As to `O=C1c2ccc(Br)cc2-[n+]2ccc3c([nH]c4ccccc43)c21`, the 50% inhibitory concentration (IC50) was found to be 3.9 µM in [1] and 5.6 µM in [2].
As for `C[n+]1cc2c3c(ccc2c2ccc4cc5c(cc4c21)OCO5)OCO3`, the inhibition at 1 µM in experiment [3] worked out at 35%. Testing at 2 µM in experiment [4] gave an inhibition of 82%.
Turning to `COc1ncc(O)c2c(O)cccc12`, the IC50 in [5] worked out at 2140 nM.
With `C=CC(C)(C)n1cc(Cc2cn(C(C)(C)C=C)c3ccccc23)c2ccccc21`, in experiment [6], the half-inhibitory concentration (IC50) is 18 µg/mL (≈ 47.1 µM).
Take `CC1=N[C@H](C(=O)O)CC2c3[nH]ccc3NC12` (some centres undefined): the IC50 in experiment [7] stood at 36.3 µM.
With `C=CC(C)(C)[C@@]12C[C@H]3C(=O)N[C@@H](Cc4ccccc4)C(=O)N3[C@@H]1N(C(C)=O)c1ccccc12`, in experiment [6], the 50% inhibitory concentration (IC50) was determined as 20 µg/mL (≈ 45.1 µM).
For `CC[C@H](/C=C(C)/C=C/C(=O)c1c(O)c(-c2ccc(O)cc2)c[nH]c1=O)CO`, the IC50 in [8] came out at 31.1 µM.
In the case of `CC1=NC(C(=O)O)Cc2c1[nH]c1cc([C@H](c3c[nH]c4ccccc34)[C@@H](O)CO)[nH]c21` (some centres undefined), the IC50 in experiment [7] turned out to be 26.1 µM.
Consider `Oc1cc2cccc(O)c2cn1`, for which the half-inhibitory concentration (IC50) in experiment [5] stood at 3460 nM.
`COc1ccc2cc3[n+](cc2c1OC)CCc1cc2c(cc1-3)OCO2` [BERBERINE]: in [9], the Activity is 88%. The 50% inhibitory concentration (IC50) came to 89.7 µM in [10]; 134 µg/mL in [11]; 120 µM in [12]; 35.5 µM in experiment [13]; 274.8 µg/L in experiment [14]; 21.8 µM in [15]. The concentration for half-maximal inhibition (IC50) amounted to 81.3 µg/L in experiment [16], 50.9 µM in experiment [17] and 9.79 µM in experiment [18].
Regarding `CC(C)=CCC/C(C)=C/CC/C(C)=C/CC[C@]1(C)CCc2cc(O)cc(C)c2O1` [DELTA-TOCOTRIENOL], the IC50 in experiment [19] worked out at 3.12 µg/mL (≈ 7.87 µM); in [20] it was 1.83 µg/mL.
On to `COc1ccc2c(c1OC)CN(C)c1c-2ccc2cc3c(cc12)OCO3` [DIHYDROCHELERYTHRINE], for which the EC50 in [21] stood at 91.2 µM; in experiment [22] it was 99.8 µM; in experiment [23], 121.4 µM; in experiment [24] it was 94.2 µM; in experiment [25], 112 µM; in [26] it was 93.3 µM.
